The text below walks through data of US7078499B2, “Nucleotide analogues comprising a reporter moiety and a polymerase enzyme blocking moiety” (GE Healthcare UK Limited, priority 2000, dated 2006).

Holding throughout (assay type): biochemical
Assay [1] concerns Retrotherm reverse transcriptase. As to the kind of experiment: Thermostable polymerase under reverse transcription conditions, Retroth. Also on record: key to result of incorporation (termination / further chain extension): T: Incorporation results in termination; E: Incorporation permits further chain extension; T/E: Predominant product is primer extended by one base, but evidence of some further extension also observed; key to primer extended by at least one base within assay time (grade): −: No extension within assay time; +/−: up to 25% of primer extended by at least one base within assay time; +: up to 50% of primer extended by at least one base within assay time; ++: up to 75% of primer extended by at least one base within assay time; +++: essentially all primer extended by at least one base within assay time. Particulars: RNA template, 2.5 mM Manganese ions; for primer extended by at least one base within assay time (grade): Tth reaction buffer. As to the method:
(§1) DNA polymerase assays were performed using Sequence 1 as primer and Sequence 2 as template. • Sequence 1 5′[Cy3]TAACTCATTAACAGGATC 3′ • Sequence 2 5′AT TCGCGGTATTCTGGTATGAAGCTTTTAGATCCTGTTAATGAGTTA GTA3′
(§2) The template (Sequence 2) was designed such that the base (underlined) immediately adjacent to the 3′ end of the hybridised primer is complementary to the nucleotide test compound. Nucleotide test compounds were compounds (6) (4′-C-(glycylaminomethyl)thymidine triphosphate), (8) (4′-C-(N-trifluoroacetyaminomethyl)thymidine triphosphate) and (9) (4′-C-(aminomethyl)thymidine triphosphate) as described above.
(§3) Primer extension reactions were performed using the above primers in the presence of 40 to 80 μM of nucleotide triphosphates. Positive control reactions contained all four native nucleotide triphosphates. For the other reactions the TTP was replaced with either a 2:1 ratio of […] for the terminator control, or entirely by the test compound The enzymes were used at a final concentration of 0.175 units/μl and a magnesium ion concentration of 2.5 mM in buffers supplied by the manufacturer. The primer and template concentrations were 0.5 pmol/μl and 2 pmol/μl respectively.
(§4) Extension reactions with thermophilic enzymes were performed by initially denaturing the fully assembled reactions at 70° C. for 5 min. followed by 45° C. for 20–40 minutes. The following enzymes were used: Taq DNA polymerase (Taq); Thermosequenase (TS); Thermosequenase II (TSII); Thermosequenase E (TSE), Tfl DNA polymerase (Tfl); Tth DNA polymerase (Tth), deltaTts DNA polymerase (deltaTts), deltaTts D DNA polymerase (dettaTTSD) (all from APBiotech); Pfu DNA polymerase (Pfu) (Stratagene Ltd); Vent™ DNA polymerase (Vent) (New England Biolabs).
(§5) Reverse transcriptase reactions were performed essentially as described above for thermophilic and mesophilic enzymes. The template for these reactions was the RNA equivalent of sequence 2. All the thermophilic enzymes were assayed in Tth reaction buffer (Cambio Ltd, Cambridge UK) containing 2.5 mM Manganese ions. The following enzymes were used: Thermosequenase (TS1); Thermosequenase II (TSII); delta Tts DNA polymerase (deltaTts); delta Tts D DNA polymerase (deltaTtsD) (all from APBiotech); Retrotherm reverse transcriptase (Retroth) (Cambio Ltd); Tth DNA polymerase (Tth) (Cambio Ltd.).
(§6) The reactions were stopped by adding a 0.5 volume aliquot of 80% formamide containing 0.1% (w/v) bromophenol blue and 0.1% (w/v) cresol blue. The reaction products were separated by denaturing gel electrophoresis at a constant power of 45 W on 16% polyacrylamide gels containing 50% urea.
(§7) Gels were scanned for Cy3 fluorescence on a Molecular Dynamics Fluorimager and the data analysed using Molecular Dynamics ImageQuant 5 software.
(§8) The incorporation of a test nucleotide triphosphate results in the appearance on a polyacrylamide gel of a single band corresponding to a single base extension product. If, however, the enzyme adds additional bases then further bands would be observed that corresponded to either the full-length product or positions of other complementary bases in the template.

Assay [2] deals with T1, Tfl DNA polymerase (Thermus thermophilus, UniProt P30313).
T1 construct: purchased APBiotech
T1 sequence (P30313 whole entry): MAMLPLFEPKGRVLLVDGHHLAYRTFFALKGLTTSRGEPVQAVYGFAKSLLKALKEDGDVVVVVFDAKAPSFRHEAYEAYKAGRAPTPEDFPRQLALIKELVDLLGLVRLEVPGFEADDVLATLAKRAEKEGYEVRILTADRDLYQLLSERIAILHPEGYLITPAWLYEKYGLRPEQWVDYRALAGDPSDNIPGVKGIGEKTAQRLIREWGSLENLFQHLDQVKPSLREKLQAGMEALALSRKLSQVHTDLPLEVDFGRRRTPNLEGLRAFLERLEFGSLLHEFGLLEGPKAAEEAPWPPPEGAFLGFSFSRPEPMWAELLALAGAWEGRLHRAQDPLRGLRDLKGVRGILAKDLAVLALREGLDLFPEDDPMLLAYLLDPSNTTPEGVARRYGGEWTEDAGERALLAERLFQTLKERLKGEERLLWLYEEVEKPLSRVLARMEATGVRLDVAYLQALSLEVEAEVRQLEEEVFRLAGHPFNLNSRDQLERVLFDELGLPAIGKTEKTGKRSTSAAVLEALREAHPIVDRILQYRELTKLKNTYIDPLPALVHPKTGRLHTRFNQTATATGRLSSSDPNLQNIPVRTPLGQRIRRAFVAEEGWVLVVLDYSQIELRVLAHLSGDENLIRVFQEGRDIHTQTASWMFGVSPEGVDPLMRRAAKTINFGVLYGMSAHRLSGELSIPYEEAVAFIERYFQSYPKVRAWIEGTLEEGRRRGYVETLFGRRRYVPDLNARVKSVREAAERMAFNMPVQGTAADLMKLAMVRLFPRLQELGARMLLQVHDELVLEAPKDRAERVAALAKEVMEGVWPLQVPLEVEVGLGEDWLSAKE
As to the kind of experiment: Thermostable DNA polymerase primer extension, Tfl. The settings on record: DNA template, 45° C. for 20–40 minutes; for primer extended by at least one base within assay time (grade): TTP replaced entirely by test compound. Also on record: key to result of incorporation (termination / further chain extension): T: Incorporation results in termination; E: Incorporation permits further chain extension; T/E: Predominant product is primer extended by one base, but evidence of some further extension also observed. As to the method:
as §1, §2, §3, §4, §6, §7, §8

Assay [3] deals with T2, Tth DNA polymerase (Thermus thermophilus, UniProt P52028).
T2 construct: purchased APBiotech
T2 sequence (P52028 whole entry): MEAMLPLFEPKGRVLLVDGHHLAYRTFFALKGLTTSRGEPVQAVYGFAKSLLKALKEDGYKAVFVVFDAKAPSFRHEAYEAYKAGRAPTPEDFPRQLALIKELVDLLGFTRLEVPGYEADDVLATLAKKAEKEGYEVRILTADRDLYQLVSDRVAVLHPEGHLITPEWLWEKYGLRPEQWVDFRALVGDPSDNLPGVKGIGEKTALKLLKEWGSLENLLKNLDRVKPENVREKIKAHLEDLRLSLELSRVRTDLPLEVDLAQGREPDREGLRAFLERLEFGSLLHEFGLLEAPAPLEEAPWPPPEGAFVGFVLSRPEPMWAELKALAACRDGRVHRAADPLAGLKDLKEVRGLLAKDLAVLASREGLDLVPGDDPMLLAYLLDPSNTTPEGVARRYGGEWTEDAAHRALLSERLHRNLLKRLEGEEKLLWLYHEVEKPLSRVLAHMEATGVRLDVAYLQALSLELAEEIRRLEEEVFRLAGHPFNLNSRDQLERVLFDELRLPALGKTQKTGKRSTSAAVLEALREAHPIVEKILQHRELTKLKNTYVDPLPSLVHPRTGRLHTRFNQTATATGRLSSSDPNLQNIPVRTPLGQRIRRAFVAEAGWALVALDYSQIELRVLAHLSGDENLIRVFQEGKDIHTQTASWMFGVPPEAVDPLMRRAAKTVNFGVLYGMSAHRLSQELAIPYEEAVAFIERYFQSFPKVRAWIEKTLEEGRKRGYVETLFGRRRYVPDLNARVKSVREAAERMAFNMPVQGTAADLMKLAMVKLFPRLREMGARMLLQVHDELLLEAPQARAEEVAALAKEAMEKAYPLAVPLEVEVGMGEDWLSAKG
As to the kind of experiment: Thermostable DNA polymerase primer extension, Tth. Also on record: key to result of incorporation (termination / further chain extension): T: Incorporation results in termination; E: Incorporation permits further chain extension; T/E: Predominant product is primer extended by one base, but evidence of some further extension also observed. Particulars: DNA template, 45° C. for 20–40 minutes; for primer extended by at least one base within assay time (grade): TTP replaced entirely by test compound. As to the method: as §1, §2, §3, §4, §6, §7, §8

Assay [4] deals with T3, MuLV RT (Moloney murine leukemia virus, UniProt P03355).
T3 construct: MuLv Reverse transcriptase or HIV reverse transcriptase; purchased APBiotech
As to the kind of experiment: Mesophilic reverse transcriptase reaction, MuLV RT. Also on record: key to result of incorporation (termination / further chain extension): T: Incorporation results in termination; E: Incorporation permits further chain extension; T/E: Predominant product is primer extended by one base, but evidence of some further extension also observed. Particulars: RNA template, final enzyme concentration of 4 units/μl. As to the method:
as §1, §2, §3
Extension reactions preformed with mesophilic polymerases were carried out by mixing all the components of the reaction except the enzyme and heating to 70° C. for 5 min. After the reactions had cooled to room temperature 0.175 units of the enzyme were added and the reactions heated to 37° C. for 20–40 minutes. The following enzymes were used: T7 DNA polymerase (T7); Sequenase 2™ (Seq); Klenow fragment of DNA polymerase 1 (Klen); phi-29 DNA polymerase (Phi-29); T4 DNA polymerase (T4) (all from AP Biotech) and Bst DNA polymerase (Bst) (Cambio Ltd).
as §5
Mesophilic reverse transcriptases (AMV RT; MuLV RT; SAV RT and HIV RT all from APBiotech) were assayed in their respective buffers with a final enzyme concentration of 4 units/μl.
as §6, §7, §8

Assay [5] has as its system Thermosequenase II. As to the kind of experiment: Thermostable DNA polymerase primer extension, TSII. Also on record: key to result of incorporation (termination / further chain extension): T: Incorporation results in termination; E: Incorporation permits further chain extension; T/E: Predominant product is primer extended by one base, but evidence of some further extension also observed. The settings on record: DNA template, 45° C. for 20–40 minutes; for primer extended by at least one base within assay time (grade): TTP replaced entirely by test compound. As to the method:
as §1, §2, §3, §4, §6, §7, §8

The test system of assay [6] is deltaTts DNA polymerase. The assay can be described thus: Thermostable DNA polymerase primer extension, delta Tts. Also on record: key to result of incorporation (termination / further chain extension): T: Incorporation results in termination; E: Incorporation permits further chain extension; T/E: Predominant product is primer extended by one base, but evidence of some further extension also observed. The settings on record: DNA template, 45° C. for 20–40 minutes; for primer extended by at least one base within assay time (grade): TTP replaced entirely by test compound. As for the experimental part: as §1, §2, §3, §4, §6, §7, §8

For the compound “4′-C-(Aminomethyl)thymidine triphosphate [compound (9)]”, the “result of incorporation (termination / further chain extension)” value is on record as “E” in assay [1]; “T” in assay [2]; “T” in assay [3]; “E” in assay [4]; “T” in assay [5]; “T” in assay [6]. For the same compound, the “primer extended by at least one base within assay time (grade)” value (“primer extended” for short) is reported as “+++” in assay [1]; “+/− (up to 25% of primer extended by at least one base within assay time)” in assay [2]; “++ (up to 75% of primer extended by at least one base within assay time)” in assay [3]; “++ (up to 75% of primer extended by at least one base within assay time)” in assay [4]; “+ (up to 50% of primer extended by at least one base within assay time)” in assay [5]; “+T” in assay [6].

For “4′-C-(Glycylaminomethyl)thymidine triphosphate [compound (6)]”, the “result of incorporation (termination / further chain extension)” value in assay [1] is listed as “E”; in assay [2], “T”; in assay [3], “T”; in assay [4], “E”; in assay [5] it was “T”; in assay [6] it was “T”. Besides, the “primer extended” value in assay [1] is listed as “++ (up to 75% of primer extended by at least one base within assay time)”; in assay [2], “+/− (up to 25% of primer extended by at least one base within assay time)”; in assay [3] it was “+ (up to 50% of primer extended by at least one base within assay time)”; in assay [4], “++ (up to 75% of primer extended by at least one base within assay time)”; in assay [5], “+ (up to 50% of primer extended by at least one base within assay time)”; in assay [6], “+ (up to 50% of primer extended by at least one base within assay time)”.

As for `Cc1cn([C@H]2C[C@H](O)[C@@](CNC(=O)C(F)(F)F)(COP(=O)(O)OP(=O)(O)OP(=O)(O)O)O2)c(=O)[nH]c1=O` [compound (8), 4′-C-(N-trifluoroacetylaminomethyl)thymidine triphosphate], the “result of incorporation (termination / further chain extension)” value in assay [1] is on record as “E”; in assay [2] it was “T”; in assay [3], “T”; in assay [4], “E”; in assay [5], “T”; in assay [6] it was “T”. For the same compound, the “primer extended” value is “++ (up to 75% of primer extended by at least one base within assay time)” in assay [1]; “+/− (up to 25% of primer extended by at least one base within assay time)” in assay [2]; “++ (up to 75% of primer extended by at least one base within assay time)” in assay [3]; “++ (up to 75% of primer extended by at least one base within assay time)” in assay [4]; “+ (up to 50% of primer extended by at least one base within assay time)” in assay [5]; “+ (up to 50% of primer extended by at least one base within assay time)” in assay [6].
